Assay results as given in patent US20080194574A1, “Pyrazine Derivatives As Effective Compounds Against Infectious Diseases” (AXXIMA PHARMACEUTICALS AG, priority 2003, published 2008).

Target: T1, viral kinase pUL-97 (Human cytomegalovirus, UniProt P16788)
T1 construct: The pUL-97 gene was cloned into a baculovirus vector; GST (glutathione S-transferase) (N); made in house; host or cells: Sf9 insect cells, baculovirus
Assay: UL97 kinase assay on Immobilon plate
Format: biochemical
Settings: inhibition of UL 97 kinase activity; class by IC50 / % inhibition at 10 or 100 μM; read-out: Activity Class [A, B, C]
Description: UL97 Kinase-Assay on Immobilon Plate
The effect of pyrazine derivatives of this invention was tested on the activity of the viral kinase pUL-97. This kinase is derived from human cytomegalovirus (HCMV) (M. Marschall et al., Journal of General Virology, 2001, 82, 1439-1450). The pUL-97 gene was cloned into a baculovirus vector in order to produce GST (glutathione S-transferase) fusion protein. Insect cells (Sf9) were infected and GST-UL-97 purified via glutathione affinity columns according to standard procedures.
The pUL-97 kinase reaction was performed as described (M. Marschall et al., Journal of General Virology, 2001, 82, 1439-1450). Briefly, 10 μl Assay buffer (3 μM ATP, 60 μg/ml myelin basic protein (MBP) as substrate), 1.0 μCi γ-[^33P]ATP and 10 μl Basic buffer (20 mM Tris-HCl pH7.5, 0.5 mM MnCl2, 1 mM DTT (Dithiothreitol)) were given to the test tube before adding various concentrations of pyrazine derivatives. The reaction was started by adding 0.2 μl pUL-97 kinase, purified from infected Sf9-insect cells as described above. The total volume was adjusted with Basic buffer to a final volume of 30 μl. The reaction mix was incubated for 1 hr at 30° C. For negative control, 10 μl 0.1M EDTA (Ethylene Diamine tetraacetate) was added to reaction mix before addition of pUL-97 protein kinase. The reaction was stopped by addition of 10 μl 0.1 M EDTA.
Measuring Incorporation of Radioactivity:
The Immobilon plate (Millipore) was rinsed with 50 μl methanol/well. Following addition of 100 μl 0.1 M EDTA, 20 μl of each kinase reaction mix was added to one well of the Immobilon plate. Each well was washed 4× with 250 μl 0.75% phosphoric acid and 1× with 50 μl methanol. After addition of 50 μl scintillation cocktail (Roth, Germany) per well incorporation of radioactivity was measured using a Betareader (Wallac) and enzymatic activity calculated.

T1 sequence (P16788 whole entry): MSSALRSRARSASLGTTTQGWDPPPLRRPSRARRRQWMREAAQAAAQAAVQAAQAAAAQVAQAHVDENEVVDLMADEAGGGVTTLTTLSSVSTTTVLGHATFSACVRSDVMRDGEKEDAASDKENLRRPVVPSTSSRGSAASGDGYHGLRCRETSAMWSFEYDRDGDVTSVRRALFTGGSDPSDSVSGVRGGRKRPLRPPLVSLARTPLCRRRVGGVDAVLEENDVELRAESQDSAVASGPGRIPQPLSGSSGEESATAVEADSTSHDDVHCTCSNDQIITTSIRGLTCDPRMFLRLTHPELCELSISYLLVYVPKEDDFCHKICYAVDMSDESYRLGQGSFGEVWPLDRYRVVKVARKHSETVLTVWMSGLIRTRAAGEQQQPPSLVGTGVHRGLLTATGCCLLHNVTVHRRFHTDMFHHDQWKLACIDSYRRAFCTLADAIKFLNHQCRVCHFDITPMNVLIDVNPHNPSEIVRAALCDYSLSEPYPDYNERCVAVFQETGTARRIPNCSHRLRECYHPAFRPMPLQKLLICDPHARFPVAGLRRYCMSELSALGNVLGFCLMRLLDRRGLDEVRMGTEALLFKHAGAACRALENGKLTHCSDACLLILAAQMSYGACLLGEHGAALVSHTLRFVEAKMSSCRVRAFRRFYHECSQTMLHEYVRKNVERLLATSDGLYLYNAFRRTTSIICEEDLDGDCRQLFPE

IC50 | SMILES
10 to 100 µM | CCOc1ccc(-c2cncc(N3CCN(c4ccccc4OC)CC3)n2)cc1 [compound 92, 6′-(4-Ethoxy-phenyl)-4-(2-methoxy-phenyl)-3,4,5,6-tetrahydro-2H-[1,2′]bipyrazinyl]
1 to 10 µM | c1ccc(N2CCN(c3cncc(-c4ccc5ccccc5c4)n3)CC2)cc1 [compound 93, 6′-Naphthalen-2-yl-4-phenyl-3,4,5,6-tetrahydro-2H-[1,2′]bipyrazinyl]
10 to 100 µM | Cc1ccccc1-c1cncc(N2CCN(c3ccccc3)CC2)n1 [compound 94, 4-Phenyl-6′-o-tolyl-3,4,5,6-tetrahydro-2H-[1,2′]bipyrazinyl]
10 to 100 µM | CC(C)(C)c1ccc(-c2cncc(N3CCN(c4ccccc4)CC3)n2)cc1 [compound 95, 6′-(4-tert-Butyl-phenyl)-4-phenyl-3,4,5,6-tetrahydro-2H-[1,2′]bipyrazinyl]
10 to 100 µM | Fc1cc(-c2cncc(N3CCN(c4ccccc4)CC3)n2)ccc1-c1ccccc1 [compound 96, 6′-(2-Fluoro-biphenyl-4-yl)-4-phenyl-3,4,5,6-tetrahydro-2H-[1,2′]bipyrazinyl]
1 to 10 µM | Clc1cccc(N2CCN(c3cncc(-c4ccccc4)n3)CC2)c1 [compound 97, 4-(3-Chloro-phenyl)-6′-phenyl-3,4,5,6-tetrahydro-2H-[1,2′]bipyrazinyl]
1 to 10 µM | COc1cccc(-c2cncc(N3CCN(c4cccc(Cl)c4)CC3)n2)c1 [compound 98, 4-(3-Chloro-phenyl)-6′-(3-methoxy-phenyl)-3,4,5,6-tetrahydro-2H-[1,2′]bipyrazinyl]
1 to 10 µM | Fc1ccc(-c2cncc(N3CCN(c4cccc(Cl)c4)CC3)n2)cc1 [compound 99, 4-(3-Chloro-phenyl)-6′-(4-fluoro-phenyl)-3,4,5,6-tetrahydro-2H-[1,2′]bipyrazinyl]
1 to 10 µM | COc1ccc(-c2cncc(N3CCN(c4cccc(Cl)c4)CC3)n2)cc1OC [compound 100, 4-(3-Chloro-phenyl)-6′-(3,4-dimethoxy-phenyl)-3,4,5,6-tetrahydro-2H-[1,2′]bipyrazinyl]
1 to 10 µM | CC(=O)c1cccc(-c2cncc(N3CCN(c4cccc(Cl)c4)CC3)n2)c1 [compound 101, 1-{3-[4-(3-Chloro-phenyl)-3,4,5,6-tetrahydro-2H-[1,2′]bipyrazinyl-6′-yl]-phenyl}-ethanone]
1 to 10 µM | CSc1ccc(-c2cncc(N3CCN(c4cccc(Cl)c4)CC3)n2)cc1 [compound 102, 4-(3-Chloro-phenyl)-6′-(4-methylsulfanyl-phenyl)-3,4,5,6-tetrahydro-2H-[1,2′]bipyrazinyl]
1 to 10 µM | CC(=O)c1ccc(-c2cncc(N3CCN(c4cccc(Cl)c4)CC3)n2)cc1 [compound 103, 1-{4-[4-(3-Chloro-phenyl)-3,4,5,6-tetrahydro-2H-[1,2′]bipyrazinyl-6′-yl]-phenyl}-ethanone]
< 1 µM | COc1ccccc1N1CCN(c2cncc(-c3ccc(C(N)=O)cc3)n2)CC1 [compound 104, 4-[4-(2-Methoxy-phenyl)-3,4,5,6-tetrahydro-2H-[1,2′]bipyrazinyl-6′-yl]-benzamide]
1 to 10 µM | COc1cccc(-c2cncc(N3CCN(c4ccccc4OC)CC3)n2)c1 [compound 105, 4-(2-Methoxy-phenyl)-6′-(3-methoxy-phenyl)-3,4,5,6-tetrahydro-2H-[1,2′]bipyrazinyl]
1 to 10 µM | COc1ccccc1N1CCN(c2cncc(-c3ccc(F)cc3)n2)CC1 [compound 106, 6′-(4-Fluoro-phenyl)-4-(2-methoxy-phenyl)-3,4,5,6-tetrahydro-2H-[1,2′]bipyrazinyl]
1 to 10 µM | COc1ccc(-c2cncc(N3CCN(c4ccccc4OC)CC3)n2)cc1OC [compound 107, 6′-(3,4-Dimethoxy-phenyl)-4-(2-methoxy-phenyl)-3,4,5,6-tetrahydro-2H-[1,2′]bipyrazinyl]
1 to 10 µM | COc1ccccc1N1CCN(c2cncc(-c3ccc(SC)cc3)n2)CC1 [compound 108, 4-(2-Methoxy-phenyl)-6′-(4-methylsulfanyl-phenyl)-3,4,5,6-tetrahydro-2H-[1,2′]bipyrazinyl]
1 to 10 µM | c1ccc(-c2cncc(N3CCN(c4ccccc4)CC3)n2)cc1 [compound 109, 4,6′-Diphenyl-3,4,5,6-tetrahydro-2H-[1,2′]bipyrazinyl]
1 to 10 µM | COc1cccc(-c2cncc(N3CCN(c4ccccc4)CC3)n2)c1 [compound 110, 6′-(3-Methoxy-phenyl)-4-phenyl-3,4,5,6-tetrahydro-2H-[1,2′]bipyrazinyl]

IC50 | SMILES
1 to 10 µM | Fc1ccc(-c2cncc(N3CCN(c4ccccc4)CC3)n2)cc1 [compound 111, 6′-(4-Fluoro-phenyl)-4-phenyl-3,4,5,6-tetrahydro-2H-[1,2′]bipyrazinyl]
1 to 10 µM | CC(=O)c1cccc(-c2cncc(N3CCN(c4ccccc4)CC3)n2)c1 [compound 112, 1-[3-(4-Phenyl-3,4,5,6-tetrahydro-2H-[1,2′]bipyrazinyl-6′-yl)-phenyl]-ethanone]
1 to 10 µM | COc1cccc(-c2cncc(N3CCN(c4ccccc4F)CC3)n2)c1 [compound 113, 4-(2-Fluoro-phenyl)-6′-(3-methoxy-phenyl)-3,4,5,6-tetrahydro-2H-[1,2′]bipyrazinyl]
1 to 10 µM | Fc1ccc(-c2cncc(N3CCN(c4ccccc4F)CC3)n2)cc1 [compound 114, 4-(2-Fluoro-phenyl)-6′-(4-fluoro-phenyl)-3,4,5,6-tetrahydro-2H-[1,2′]bipyrazinyl]
1 to 10 µM | CC(=O)c1cccc(-c2cncc(N3CCN(c4ccccc4F)CC3)n2)c1 [compound 115, 1-{3-[4-(2-Fluoro-phenyl)-3,4,5,6-tetrahydro-2H-[1,2′]bipyrazinyl-6′-yl]-phenyl}-ethanone]
1 to 10 µM | CSc1ccc(-c2cncc(N3CCN(c4ccccc4F)CC3)n2)cc1 [compound 116, 4-(2-Fluoro-phenyl)-6′-(4-methylsulfanyl-phenyl)-3,4,5,6-tetrahydro-2H-[1,2′]bipyrazinyl]
1 to 10 µM | OCc1ccc(-c2cncc(N3CCN(c4ccccc4)CC3)n2)cc1 [compound 117, [4-(4-Phenyl-3,4,5,6-tetrahydro-2H-[1,2′]bipyrazinyl-6′-yl)-phenyl]-methanol]
1 to 10 µM | c1ccc(N2CCN(c3cncc(-c4ccoc4)n3)CC2)cc1 [compound 118, 6′-Furan-3-yl-4-phenyl-3,4,5,6-tetrahydro-2H-[1,2′]bipyrazinyl]
10 to 100 µM | COc1ccc(Cl)cc1-c1cncc(N2CCN(c3ccccc3)CC2)n1 [compound 119, 6′-(5-Chloro-2-methoxy-phenyl)-4-phenyl-3,4,5,6-tetrahydro-2H-[1,2′]bipyrazinyl]
1 to 10 µM | CSc1ccc(-c2cncc(N3CCN(c4ccccc4)CC3)n2)cc1 [compound 120, 6′-(4-Methylsulfanyl-phenyl)-4-phenyl-3,4,5,6-tetrahydro-2H-[1,2′]bipyrazinyl]
1 to 10 µM | CCOc1ccc(-c2cncc(N3CCN(c4ccccc4)CC3)n2)cc1 [compound 121, 6′-(4-Ethoxy-phenyl)-4-phenyl-3,4,5,6-tetrahydro-2H-[1,2′]bipyrazinyl]
1 to 10 µM | Fc1ccccc1N1CCN(c2cncc(-c3ccsc3)n2)CC1 [compound 122, 4-(2-Fluoro-phenyl)-6′-thiophen-3-yl-3,4,5,6-tetrahydro-2H-[1,2′]bipyrazinyl]
1 to 10 µM | Fc1ccccc1N1CCN(c2cncc(-c3ccc4ccccc4c3)n2)CC1 [compound 123, 4-(2-Fluoro-phenyl)-6′-naphthalen-2-yl-3,4,5,6-tetrahydro-2H-[1,2′]bipyrazinyl]
10 to 100 µM | Cc1ccccc1-c1cncc(N2CCN(c3ccccc3F)CC2)n1 [compound 124, 4-(2-Fluoro-phenyl)-6′-o-tolyl-3,4,5,6-tetrahydro-2H-[1,2′]bipyrazinyl]
1 to 10 µM | OCc1ccc(-c2cncc(N3CCN(c4ccccc4F)CC3)n2)cc1 [compound 125, {4-[4-(2-Fluoro-phenyl)-3,4,5,6-tetrahydro-2H-[1,2′]bipyrazinyl-6′-yl]-phenyl}-methanol]
1 to 10 µM | Fc1ccccc1N1CCN(c2cncc(-c3ccoc3)n2)CC1 [compound 126, 4-(2-Fluoro-phenyl)-6′-furan-3-yl-3,4,5,6-tetrahydro-2H-[1,2′]bipyrazinyl]
10 to 100 µM | CCOc1ccc(-c2cncc(N3CCN(c4ccccc4F)CC3)n2)cc1 [compound 127, 6′-(4-Ethoxy-phenyl)-4-(2-fluoro-phenyl)-3,4,5,6-tetrahydro-2H-[1,2′]bipyrazinyl]
10 to 100 µM | Fc1cc(-c2cncc(N3CCN(c4ccccc4F)CC3)n2)ccc1-c1ccccc1 [compound 128, 6′-(2-Fluoro-biphenyl-4-yl)-4-(2-fluoro-phenyl)-3,4,5,6-tetrahydro-2H-[1,2′]bipyrazinyl]
